Reference: ChEMBL document CHEMBL1221268, “Synthesis of a series of novel 2,4,5-trisubstituted selenazole compounds as potential PLTP inhibitors” (Bioorg Med Chem Lett, 2010)

Columns and labels:
[1] = molecular target: T1, Cholesteryl ester transfer protein (Homo sapiens, UniProt P11597); assay: Inhibition of CETP
T1 sequence (P11597 whole entry): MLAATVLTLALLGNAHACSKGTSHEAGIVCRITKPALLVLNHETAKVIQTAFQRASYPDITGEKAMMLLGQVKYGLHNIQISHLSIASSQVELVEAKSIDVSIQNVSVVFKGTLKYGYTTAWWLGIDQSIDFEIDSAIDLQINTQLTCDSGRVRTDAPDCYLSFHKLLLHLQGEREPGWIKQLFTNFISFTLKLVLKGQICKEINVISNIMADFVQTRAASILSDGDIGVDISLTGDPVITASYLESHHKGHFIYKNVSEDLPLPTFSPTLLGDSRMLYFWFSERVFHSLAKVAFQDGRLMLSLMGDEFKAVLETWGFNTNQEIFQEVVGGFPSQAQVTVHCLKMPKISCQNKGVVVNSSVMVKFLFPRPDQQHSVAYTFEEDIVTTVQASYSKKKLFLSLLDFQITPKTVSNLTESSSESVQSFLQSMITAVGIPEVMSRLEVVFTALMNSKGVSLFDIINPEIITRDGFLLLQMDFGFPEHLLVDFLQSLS

[2] = molecular target: Phospholipid transfer protein (Homo sapiens, UniProt P55058); assay: Inhibition of PLTP
Phospholipid transfer protein, sequence (P55058 whole entry): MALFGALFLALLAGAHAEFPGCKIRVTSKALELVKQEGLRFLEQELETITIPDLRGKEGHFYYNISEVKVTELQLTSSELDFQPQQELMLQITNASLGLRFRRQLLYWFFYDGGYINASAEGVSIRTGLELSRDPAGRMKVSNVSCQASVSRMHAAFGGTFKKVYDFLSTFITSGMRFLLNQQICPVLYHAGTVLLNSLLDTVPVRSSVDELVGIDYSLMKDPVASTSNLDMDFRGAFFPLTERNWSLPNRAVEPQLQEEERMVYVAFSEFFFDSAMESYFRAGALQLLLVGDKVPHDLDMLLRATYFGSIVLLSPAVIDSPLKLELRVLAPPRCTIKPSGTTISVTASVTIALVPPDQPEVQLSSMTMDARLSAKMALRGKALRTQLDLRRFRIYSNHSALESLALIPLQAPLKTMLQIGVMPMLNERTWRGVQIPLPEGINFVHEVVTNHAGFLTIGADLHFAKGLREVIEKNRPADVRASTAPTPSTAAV

IC50 [2]	SMILES	IC50 [1]	IC50 ([2]; read-out: IC50) [µM]	IC50 ([1]; read-out: IC50) [µM]
	CCc1[se]c(NC(=O)c2cc(O)c(O)c(O)c2)nc1-c1ccc(O)cc1	Not Active	32	
	CCc1[se]c(NC(=O)c2ccc(OC)c(OC)c2)nc1-c1ccc(OC)cc1	Not Active	100	
	CCc1[se]c(NC(=O)c2ccc(Cl)cc2)nc1-c1ccc(O)cc1	Not Active	60	
Not Active	CCc1[se]c(NC(=O)c2cc(OC)c(OC)c(OC)c2)nc1-c1ccc(OC)cc1	Not Active		
	COc1ccc(-c2nc(NC(=O)c3ccc(OC)c(OC)c3)[se]c2Cc2ccccc2)cc1		80	30
	O=C(Nc1nc(-c2ccc(O)cc2)c(Cc2ccccc2)[se]1)c1ccc(O)c(O)c1	Not Active	35	
	COc1ccc(-c2nc(NC(=O)c3ccc([N+](=O)[O-])cc3)[se]c2Cc2ccccc2)cc1	Not Active	85	
	O=C(Nc1nc(-c2ccc(O)cc2)c(Cc2ccccc2)[se]1)c1cc(O)c(O)c(O)c1	Not Active	32	
	CCCCCC(=O)Nc1nc(-c2ccc(O)cc2)c(Cc2ccccc2)[se]1		60	25
	O=C(Nc1nc(-c2ccccc2)c(-c2ccccc2)[se]1)c1ccc(O)c(O)c1	Not Active	8	
	O=C(Nc1nc(-c2ccccc2)c(-c2ccccc2)[se]1)c1cc(O)c(O)c(O)c1	Not Active	25	
Not Active	O=C(Nc1nc(-c2ccccc2)c(-c2ccccc2)[se]1)c1ccccc1	Not Active		
Not Active	COc1cc(C(=O)Nc2nc(-c3ccccc3)c(-c3ccccc3)[se]2)cc(OC)c1OC	Not Active		
Not Active	O=C(Nc1nc(-c2ccccc2)c(-c2ccccc2)[se]1)c1cc(F)c(F)c(F)c1	Not Active		
	CCCCc1[se]c(NC(=O)c2cc(O)c(O)c(O)c2)nc1-c1ccc(O)cc1	Not Active	10	
	CCCCc1[se]c(NC(C)=O)nc1-c1ccc(O)cc1	Not Active	60	
	CCCCc1[se]c(NC(=O)c2ccc(Cl)cc2)nc1-c1ccc(O)cc1	Not Active	60	
	CCCCc1[se]c(NC(=O)c2cc(OC)c(OC)c(OC)c2)nc1-c1ccc(OC)cc1	Not Active	150	
	CCCCc1[se]c(NC(=O)c2ccc(OC)c(OC)c2)nc1-c1ccc(OC)cc1	Not Active	80	

SMILES	IC50 [2]	IC50 [1]	IC50 ([2]; read-out: IC50) [µM]	IC50 ([1]; read-out: IC50) [µM]
CCc1[se]c(NC(=O)c2ccc(Cl)cc2)nc1-c1ccc(OC)cc1	Not Active	Not Active		
COc1ccc(-c2nc(NC(=O)c3cc(OC)c(OC)c(OC)c3)[se]c2Cc2ccccc2)cc1	Not Active			25
